Holding throughout (format): biochemical
The target in one assay is T1, GSK3b (Homo sapiens, UniProt P49841).
T1 construct: purchased Carna Biosciences 04-141
Kind of assay: Kinase selectivity profiling (focused panel), radioactive filter plate assay: GSK3b. The conditions noted are these: Phospho glycogen synthase peptide2, 1.5 μM ATP, 90 min. The method, then: (§1) The purpose of this assay is to determine the activity and selectivity of a compound of the invention on a selected range of human kinases which may result in undesirable side-effects when inhibited (Dy & Adjei 2013; Force & Kolaja 2011).
(§2) The IC50 value for off-target kinases is determined in radioactive filter plate assays. The principle of the assays consists in the measurement of incorporated ^33P into a peptide substrate upon phosphorylation by the kinase enzyme using [γ-^33P]ATP and ATP. Unincorporated ^33P is removed by loading the samples on a filter plate (using a harvester, PerkinElmer) and 6 subsequent washing steps. Incorporated ^33P in the peptide substrate is measured by a scintillation counter (Topcount, PerkinElmer) after addition of MicroScint™-20 (PerkinElmer, 6013621) to the filter plates.
(§3) 5 μL of a water dilution series of test compound (starting from 20 μM or 6.6 μM highest concentration), from a 100% DMSO stock solution, 1/5 dilution, is added to the wells (final DMSO concentration of 1% in reaction assay). Enzyme and peptide substrate are used at optimized concentrations (cf. Table VI). The enzyme and substrate are diluted in assay buffer to a total volume of 11 μL. The reaction is started by addition of 9 μL of ATP+[γ-^33P]ATP, diluted in the same buffer as enzyme and substrate. The mixture is incubated at 30° C. The reaction is terminated by adding 25 μL of 150 mM phosphoric acid. Samples are transferred to filter plates and incorporated radioactivity is measured using a scintillation counter.
(§4) The incubation time, assay buffer composition, and concentrations of ATP, enzyme and substrate are reported in Table VI for example kinase off-target assays.
(§5) 10 μM staurosporine (1% DMSO) is used as positive control (100% inhibition); vehicle (water+1% DMSO) as negative control (0% inhibition).

The target in a further assay is T2, CDK9 (Homo sapiens, UniProt P50750).
T2 construct: purchased Millipore 14-685
T2 sequence (P50750 whole entry): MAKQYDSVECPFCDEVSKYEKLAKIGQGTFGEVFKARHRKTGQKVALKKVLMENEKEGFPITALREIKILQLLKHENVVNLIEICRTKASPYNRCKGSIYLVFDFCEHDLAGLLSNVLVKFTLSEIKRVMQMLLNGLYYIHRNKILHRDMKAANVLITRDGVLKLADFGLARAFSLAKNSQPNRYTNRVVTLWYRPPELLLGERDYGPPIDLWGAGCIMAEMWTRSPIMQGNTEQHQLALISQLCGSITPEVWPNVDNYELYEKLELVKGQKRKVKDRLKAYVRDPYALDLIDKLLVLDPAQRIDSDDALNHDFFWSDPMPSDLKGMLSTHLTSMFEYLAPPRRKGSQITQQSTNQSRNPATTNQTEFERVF
T2 sequence (O60563 whole entry partner): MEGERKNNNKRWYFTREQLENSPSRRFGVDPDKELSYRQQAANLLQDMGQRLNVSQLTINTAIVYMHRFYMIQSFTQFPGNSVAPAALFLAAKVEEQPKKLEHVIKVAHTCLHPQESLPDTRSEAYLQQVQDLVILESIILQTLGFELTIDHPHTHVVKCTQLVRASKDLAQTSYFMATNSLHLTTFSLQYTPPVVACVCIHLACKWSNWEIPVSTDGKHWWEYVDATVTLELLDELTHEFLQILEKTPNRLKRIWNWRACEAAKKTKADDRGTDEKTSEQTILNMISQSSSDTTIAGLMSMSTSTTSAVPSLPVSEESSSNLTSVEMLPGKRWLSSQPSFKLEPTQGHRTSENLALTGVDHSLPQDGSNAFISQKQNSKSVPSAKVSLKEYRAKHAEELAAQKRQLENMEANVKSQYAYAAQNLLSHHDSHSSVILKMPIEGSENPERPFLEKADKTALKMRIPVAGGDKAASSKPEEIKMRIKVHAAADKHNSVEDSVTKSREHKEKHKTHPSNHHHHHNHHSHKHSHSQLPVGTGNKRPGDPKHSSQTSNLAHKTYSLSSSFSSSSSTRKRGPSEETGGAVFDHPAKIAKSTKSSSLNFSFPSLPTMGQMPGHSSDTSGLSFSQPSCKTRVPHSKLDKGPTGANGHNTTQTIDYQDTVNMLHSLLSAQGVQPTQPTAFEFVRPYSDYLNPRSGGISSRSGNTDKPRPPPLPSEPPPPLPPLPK
Nature of the assay: Kinase selectivity profiling (focused panel), radioactive filter plate assay: CDK9. The following applies: PDKtide, 0.25 μM ATP, 60 min. The method, then: as §1, §2, §3, §4, §5

The next assay concerns the target T3, c-SRC (Homo sapiens, UniProt P12931).
T3 construct: purchased Carna Biosciences 08-173
Nature of the assay: Kinase selectivity profiling (focused panel), radioactive filter plate assay: c-SRC. The conditions noted are these: PolyGT substrate, 0.25 μM ATP, 60 min. Here is the method: as §1, §2, §3, §4, §5

A further assay deals with T4, CDK2 (Homo sapiens, UniProt P24941).
T4 construct: purchased Carna Biosciences 04-103
Kind of assay: Kinase selectivity profiling (focused panel), radioactive filter plate assay: CDK2. The following applies: Histone H1-derived peptide, 0.1 μM ATP, 60 min. Here is the method: as §1, §2, §3, §4, §5

The target in the next assay is T5, human IRAK-4 (Homo sapiens, UniProt Q9NWZ3).
T5 construct: purchased Carna Biosciences 09-145
T5 sequence (Q9NWZ3 1-460): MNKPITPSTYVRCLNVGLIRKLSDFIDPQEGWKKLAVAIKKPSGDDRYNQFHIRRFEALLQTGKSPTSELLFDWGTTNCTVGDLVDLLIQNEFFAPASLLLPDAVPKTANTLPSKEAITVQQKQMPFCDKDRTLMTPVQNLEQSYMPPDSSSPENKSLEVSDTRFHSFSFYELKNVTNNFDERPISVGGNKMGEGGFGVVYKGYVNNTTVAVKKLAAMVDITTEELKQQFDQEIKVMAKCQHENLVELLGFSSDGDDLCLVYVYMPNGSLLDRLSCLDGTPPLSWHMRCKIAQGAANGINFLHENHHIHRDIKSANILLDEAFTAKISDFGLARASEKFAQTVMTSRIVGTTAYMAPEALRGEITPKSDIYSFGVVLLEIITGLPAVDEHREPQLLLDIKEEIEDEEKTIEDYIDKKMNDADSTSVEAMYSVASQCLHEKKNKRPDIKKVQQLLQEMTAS
Nature of the assay: IC50 determination for human IRAK-4, radioactive filter plate assay. The conditions noted are these: RIP140 substrate, 1 μM ATP + [γ-33P]ATP, 30° C., 45 min; read-out: hIRAK-4 IC50. The method, then:
The IC50 value for IRAK-4 is determined in a radioactive filter plate assay. The principle of the assay consists in the measurement of incorporated ^33P into the RIP140 substrate upon phosphorylation by the enzyme IRAK-4 using [γ-^33P]ATP and ATP. Unincorporated ^33P is removed by loading the samples on a filter plate (using a harvester, PerkinElmer) and 6 subsequent washing steps. Incorporated ^33P in RIP140 is measured by a scintillation counter (Topcount, PerkinElmer) after addition of MicroScint™-20 (PerkinElmer, 6013621) to the filter plates.
5 μL of a water dilution series of test compound (starting from 20 μM or 6.6 μM highest concentration), from a 100% DMSO stock solution, 1/5 dilution, is added to the wells (final DMSO concentration of 1% in reaction assay). IRAK-4 (Carna Biosciences, 09-145) and RIP140 (SEQ ID1, cf. Table VII) are used at a final concentration of 10 ng/mL and 4 μM, respectively. The enzyme and substrate are diluted in 25 mM Tris pH 7.5, 0.025% Triton X-100, 5 mM MnCl2, and 2 mM DTT to a total volume of 11 μL. The reaction is started by addition of 9 μL of 1 μM ATP (Sigma, A6419-5G)+0.25 μCi [γ-^33P]ATP (PerkinElmer, NEG602K001MC), diluted in the same buffer as enzyme and substrate. The mixture is incubated at 30° C. for 45 min. The reaction is terminated by adding 25 μL of 150 mM phosphoric acid (VWR, 1.00573.1000). Samples are transferred to filter plates and incorporated radioactivity is measured using a scintillation counter.
as §5

For the next assay, the target named is T6, ABL (Homo sapiens, UniProt P00519).
T6 construct: purchased Life Technologies P3049
T6 sequence (P00519 whole entry): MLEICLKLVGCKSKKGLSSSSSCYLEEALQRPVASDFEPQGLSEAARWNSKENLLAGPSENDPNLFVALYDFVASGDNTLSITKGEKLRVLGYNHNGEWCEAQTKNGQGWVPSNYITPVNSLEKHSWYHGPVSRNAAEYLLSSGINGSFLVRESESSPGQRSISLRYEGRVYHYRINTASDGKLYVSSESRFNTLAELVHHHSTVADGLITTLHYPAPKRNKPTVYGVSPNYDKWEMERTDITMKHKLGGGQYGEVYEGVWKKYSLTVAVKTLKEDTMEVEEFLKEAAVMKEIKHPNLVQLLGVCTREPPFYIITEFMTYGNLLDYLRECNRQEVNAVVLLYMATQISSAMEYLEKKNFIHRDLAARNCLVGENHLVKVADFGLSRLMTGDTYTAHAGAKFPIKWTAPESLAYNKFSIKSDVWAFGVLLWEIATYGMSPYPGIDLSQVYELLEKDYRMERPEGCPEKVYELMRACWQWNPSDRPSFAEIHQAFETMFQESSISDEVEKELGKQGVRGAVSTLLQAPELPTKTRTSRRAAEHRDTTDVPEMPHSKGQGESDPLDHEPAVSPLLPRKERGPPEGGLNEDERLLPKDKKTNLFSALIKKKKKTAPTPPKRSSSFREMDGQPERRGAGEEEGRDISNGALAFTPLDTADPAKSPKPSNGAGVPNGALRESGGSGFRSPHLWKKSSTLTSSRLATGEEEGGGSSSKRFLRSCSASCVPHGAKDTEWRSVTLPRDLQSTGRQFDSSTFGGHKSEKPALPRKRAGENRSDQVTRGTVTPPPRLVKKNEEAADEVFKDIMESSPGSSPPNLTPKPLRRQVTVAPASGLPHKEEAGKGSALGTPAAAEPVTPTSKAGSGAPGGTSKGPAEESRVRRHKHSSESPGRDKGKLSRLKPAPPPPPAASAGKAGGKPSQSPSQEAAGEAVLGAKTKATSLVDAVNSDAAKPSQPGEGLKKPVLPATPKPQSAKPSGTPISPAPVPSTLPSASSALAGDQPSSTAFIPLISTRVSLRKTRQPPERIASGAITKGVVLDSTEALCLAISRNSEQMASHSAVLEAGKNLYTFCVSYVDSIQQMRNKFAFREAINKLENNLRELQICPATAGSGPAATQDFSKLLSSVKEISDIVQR
Nature of the assay: Kinase selectivity profiling (focused panel), radioactive filter plate assay: ABL. The following applies: PolyGT substrate, 0.5 μM ATP, 60 min. The method, then: as §1, §2, §3, §4, §5

This is an account of results in US10508111B2, “6-[5-amino-6-(2-ethoxyethoxy)-imidazo[4,5-B]pyridin-3-yl]-nicotinonitrile derivatives and their use as IRAK inhibitors” (GALAPAGOS NV, priority 2015, dated 2019).

T1 sequence (P49841 whole entry): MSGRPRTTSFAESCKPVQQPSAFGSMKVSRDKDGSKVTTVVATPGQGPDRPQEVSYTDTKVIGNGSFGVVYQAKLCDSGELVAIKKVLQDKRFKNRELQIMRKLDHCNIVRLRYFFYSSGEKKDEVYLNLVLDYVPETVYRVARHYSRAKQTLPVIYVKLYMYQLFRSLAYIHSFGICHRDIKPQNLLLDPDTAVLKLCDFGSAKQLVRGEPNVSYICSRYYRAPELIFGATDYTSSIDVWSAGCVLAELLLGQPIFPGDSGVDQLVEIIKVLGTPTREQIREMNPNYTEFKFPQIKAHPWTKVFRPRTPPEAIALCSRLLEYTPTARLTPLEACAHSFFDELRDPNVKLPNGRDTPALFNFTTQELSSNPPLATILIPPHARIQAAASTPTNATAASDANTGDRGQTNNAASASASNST
T3 sequence (P12931 whole entry): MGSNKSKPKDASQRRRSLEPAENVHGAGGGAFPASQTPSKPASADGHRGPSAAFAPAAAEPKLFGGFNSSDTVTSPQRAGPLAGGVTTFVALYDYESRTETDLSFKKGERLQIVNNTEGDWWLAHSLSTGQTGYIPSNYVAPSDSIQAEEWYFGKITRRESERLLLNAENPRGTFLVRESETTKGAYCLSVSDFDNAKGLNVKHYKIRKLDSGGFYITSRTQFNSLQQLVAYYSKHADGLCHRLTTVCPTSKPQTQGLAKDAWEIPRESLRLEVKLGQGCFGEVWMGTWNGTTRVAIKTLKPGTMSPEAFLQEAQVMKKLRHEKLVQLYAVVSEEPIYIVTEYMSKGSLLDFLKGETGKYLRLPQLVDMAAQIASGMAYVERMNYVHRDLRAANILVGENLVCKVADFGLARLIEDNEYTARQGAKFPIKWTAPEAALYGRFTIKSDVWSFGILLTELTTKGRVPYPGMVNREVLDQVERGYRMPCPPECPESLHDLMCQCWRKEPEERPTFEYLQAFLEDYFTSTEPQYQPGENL

One may read the IC50 as the concentration needed to halve the response being measured. On to `N#Cc1ccc(-n2cnc3cc(OCCOCCO)c(N[C@@H]4COCC[C@@H]4O)nc32)nc1` (relative stereo) [Compound 11, 6-[6-[2-(2-hydroxyethoxy)ethoxy]-5-[[(cis-3,4)-4-hydroxytetrahydropyran-3-yl]amino]imidazo[4,5-b]pyridin-3-yl]pyridine-3-carbonitrile], for which the IC50 at GSK3b was over 1330 nM; at CDK9, 834 nM; on c-SRC it was over 1330 nM; at CDK2, over 1330 nM; at human IRAK-4, 14.3 nM.
In the case of `N#Cc1ccc(-n2cnc3cc(OCCOCCO)c(NC4CCS(=O)(=O)CC4)nc32)nc1` [Compound 2, 6-{5-(1,1-dioxo-tetrahydro-2H-thiopyran-4-ylamino)-6-[2-(2-hydroxy-ethoxy)-ethoxy]-imidazo[4,5-b]pyridin-3-yl}-nicotinonitrile], the IC50 at GSK3b was over 1330 nM; on CDK9, 712 nM; at c-SRC, over 1330 nM; at CDK2, over 1330 nM; at human IRAK-4, 25.4 nM.
`CN(c1nc2c(cc1OCCOCCO)ncn2-c1ccc(C#N)cn1)[C@H]1CC[C@@](C)(O)CC1` [Compound 3, 6-{6-[2-(2-hydroxy-ethoxy)-ethoxy]-5-[((cis-1,4)-4-hydroxy-4-methyl-cyclohexyl)-methyl-amino]-imidazo[4,5-b]pyridin-3-yl}-nicotinonitrile]: the IC50 on human IRAK-4 was determined as 21.7 nM.
On the same count and under the same terms, as for `COCCOCCOc1cc2ncn(-c3ccc(C#N)cn3)c2nc1N(C)C1CCOCC1` [Compound 4, 6-{6-[2-(2-methoxy-ethoxy)-ethoxy]-5-[methyl-(tetrahydro-pyran-4-yl)-amino]-imidazo[4,5-b]pyridin-3-yl}-nicotinonitrile], the figure is 523 nM.
For `COCCOCCOc1cc2ncn(-c3ccc(C#N)cn3)c2nc1NC1CCOCC1` [Compound 5, 6-[6-[2-(2-methoxy-ethoxy)-ethoxy]-5-(tetrahydro-pyran-4-ylamino)-imidazo[4,5-b]pyridin-3-yl]-nicotinonitrile], the IC50 on GSK3b was over 4000 nM; at ABL it was 2690 nM; on CDK9 it was 2290 nM; on c-SRC it was over 2940 nM; at CDK2 it was over 4000 nM; at human IRAK-4, 13.8 nM.
Regarding `N#Cc1ccc(-n2cnc3cc(OCCOCCO)c(NC4CCCC(O)C4)nc32)nc1` (centres unmarked) [Compound 6, 6-{5-(3-hydroxy-cyclohexylamino)-6-[2-(2-hydroxy-ethoxy)-ethoxy]-imidazo[4,5-b]pyridin-3-yl}-nicotinonitrile], the 50% inhibitory concentration (IC50) on GSK3b is over 4000 nM; at ABL it was 656 nM; at CDK9, 1030 nM; at c-SRC, 754 nM; at CDK2, 2670 nM; on human IRAK-4, 4.85 nM.
As to `N#Cc1ccc(-n2cnc3cc(OCCOCCO)c(NC4CCC(F)(F)CC4)nc32)nc1` [Compound 7, 6-{5-(4,4-difluoro-cyclohexylamino)-6-[2-(2-hydroxy-ethoxy)-ethoxy]-imidazo[4,5-b]pyridin-3-yl}-nicotinonitrile], on human IRAK-4, the IC50 is 14.3 nM.
The same measure, in the same setting: as for `N#Cc1ccc(-n2cnc3cc(OCCOCCOS(=O)(=O)O)c(NC4CCOCC4)nc32)nc1` [Compound 8, sulfuric acid mono-(2-{2-[3-(5-cyano-pyridin-2-yl)-5-(tetrahydro-pyran-4-ylamino)-3H-imidazo[4,5-b]pyridin-6-yloxy]-ethoxy}-ethyl) ester], the figure is 51.4 nM.
For the compound `CC(C)[C@H](N)C(=O)OCCOCCOc1cc2ncn(-c3ccc(C#N)cn3)c2nc1NC1CCOCC1` [Compound 9, (S)-2-amino-3-methyl-butyric acid 2-{2-[3-(5-cyano-pyridin-2-yl)-5-(tetrahydro-pyran-4-ylamino)-3H-imidazo[4,5-b]pyridin-6-yloxy]-ethoxy}-ethyl ester], the IC50 on GSK3b was 3250 nM; on ABL it was 633 nM; on CDK9 it was 639 nM; on c-SRC, 286 nM; on CDK2, over 4000 nM; at human IRAK-4, 13.5 nM.
In the case of `COCCOCCOc1cc2ncn(-c3ccc(C#N)cn3)c2nc1N(C)[C@H]1CC[C@@](C)(O)CC1` [Compound 13, 6-[5-[((cis-1,4)-4-hydroxy-4-methyl-cyclohexyl)-methyl-amino]-6-[2-(2-methoxyethoxy)ethoxy]imidazo[4,5-b]pyridin-3-yl]pyridine-3-carbonitrile], the IC50 at human IRAK-4 worked out at 39.1 nM.
For the compound `COCCOCCOc1cc2ncn(-c3ccc(C#N)cn3)c2nc1N[C@H]1CC[C@@](C)(O)CC1` [Compound 14, 6-[5-[((cis-1,4)-4-hydroxy-4-methylcyclohexyl)amino]-6-[2-(2-methoxyethoxy)ethoxy]imidazo[4,5-b]pyridin-3-yl]pyridine-3-carbonitrile], the IC50 is 2240 nM on GSK3b; 1390 nM at CDK9; 319 nM on c-SRC; 1380 nM on CDK2; 3.45 nM on human IRAK-4.
